Test results: patent US9481639B2, “Substituted tetracycline compounds for treatment of inflammatory skin disorders” (Paratek Pharmaceuticals, Inc., priority 2006, dated 2016)
In brackets after ≈: the same amount, converted by molar mass. Like-named read-outs stand apart in the source and are kept apart here.

Legend:
[1] = system: B. thetaiotaomicron ATCC 29741; assay: Antibacterial MIC, CLSI broth microdilution; type: cell-based
Method: (§1) Gram (−) and gram (+) antibacterial minimum inhibitory concentration (MIC) values (μg/mL) were obtained using CLSI methodology for anti-bacterial susceptibility testing. On each day of testing, serial dilutions of compounds were prepared in microdilution plates using a Tecan robotic workstation. Mueller Hinton broth cultures of representative sensitive and resistant gram negative strains were grown or adjusted to match the turbidity of a 0.5 McFarland standard. 1:200 dilutions were made in an appropriate broth (cation supplemented Mueller Hinton broth) to allow a final inoculum of 1×10^5 cfu. Plates were incubated at 35° C. in ambient air for 18-24 hours, were read spectrophotometrically and checked manually for evidence of bacterial growth. The lowest dilution of compound that inhibited growth was recorded as the MIC. Lysed horse blood was used to supplement broth for testing S. pneumoniae. The MIC's for each compound were assessed against S. aureus, S. pneumoniae, P. acnes, E. coli and B. theta.

P. acnes ATCC 11827 = assay: Antibacterial MIC, CLSI broth microdilution; type: cell-based; settings: Cutibacterium acnes, ATCC11827
Method: as §1

E. coli MG. 1655 = assay: Antibacterial MIC, CLSI broth microdilution; type: cell-based; settings: Escherichia coli, 35° C., 18-24 hours
Method: as §1

S. aureus RN450 [2] = assay: Antibacterial MIC, CLSI broth microdilution; type: cell-based; settings: Staphylococcus aureus, 35° C., 18-24 hours
Method: as §1

[3] = system: S. pneumoniae 157E - Strep; assay: Antibacterial MIC, CLSI broth microdilution; type: cell-based; settings: Streptococcus pneumoniae, 157ESTREP; broth supplemented with lysed horse blood
Method: as §1

P. acnes ATCC 6919 = assay: Antibacterial MIC, CLSI broth microdilution; type: cell-based; settings: Cutibacterium acnes, ATCC6919
Method: as §1

E. coli ATCC 25922 = assay: Antibacterial MIC, CLSI broth microdilution; type: cell-based; settings: Escherichia coli, ATCC25922; 35° C., 18-24 hours
Method: as §1

in vitro = type: cell-based
Method: Mammalian cell cytotoxicity was assessed to evaluate potential in vivo risks associated with the tetracycline compounds of the invention. A soluble, non-toxic redox dye (“Resazurin”; Alamar Blue) was used to assess a tetracycline compound's effect on cellular metabolism. At the onset of the experiment, cultures of mammalian COS-1 or CHO cells were washed, trypsinized, and harvested. […] On the next day, serial dilutions of test drug were prepared under sterile conditions and transferred to cell plates. Plates were then incubated under the above conditions for 24 hours. Following the incubation period, the media/drug was aspirated, and 50 μL of resazurin was added. Plates were then incubated under the above conditions for 2 hours and then in the dark at room temperature for an additional 30 minutes. Fluorescence measurements were taken (excitation 535 nm, emission 590 nm) and toxic effects in treated versus control cells were compared based on the degree of fluorescence in each well.

S. aureus RN450 [4] = assay: In vivo anti-bacterial activity, S. aureus lethal infection model; settings: Staphylococcus aureus, sc, mice; for ED50: lethal IP S. aureus RN450, subcutaneous, 24 hours, read-out: PD50 (dose that protects 50% of the animals)
Method: Groups of five mice were injected intraperitoneally with a lethal dose of S. aureus RN450 in a medium of mucin. Mice were evaluated at 24 hours to determine survival. […] In some instances, a dose response study was performed with the compound such that a PD50 (a dose of compound that protects 50% of the animals) could be calculated.

[5] = Bacteroides thetaiotaomicron, ATCC29741; read-out: MIC B. thetaiotaomicron ATCC 29741
[6] = Bacteroides thetaiotaomicron, ATCC29741, read-out: MIC B. thetaiotaomicron ATCC 29741

| SMILES | MIC [1, 5] | MIC (P. acnes ATCC 11827) | MIC (E. coli MG. 1655) | MIC (S. aureus RN450 [2]) | MIC [3] | MIC (P. acnes ATCC 6919) | MIC (E. coli ATCC 25922) | IC50 at 24 h (in vitro; African green monkey) | IC50 at 24 h (in vitro; Chinese hamster) | responders at 5 mg/kg (S. aureus RN450 [4]; lethal IP S. aureus RN450, single subcutaneous dose 5 mg/kg, survival at 24 hours, read-out: Percent Survival) | ED50 (S. aureus RN450 [4]) | MIC [1, 6] |
| --- | --- | --- | --- | --- | --- | --- | --- | --- | --- | --- | --- | --- |
| CN(C)CCC(=NOC(C)(C)C)c1ccc(O)c2c1C[C@H]1C[C@H]3[C@H](N(C)C)C(O)=C(C(N)=O)C(=O)[C@@]3(O)C(O)=C1C2=O [O] | < 4 µg/mL | < 4 µg/mL | < 4 µg/mL | < 4 µg/mL | < 4 µg/mL | < 4 µg/mL | < 4 µg/mL | 35 to 75 µg/mL (≈ 59.9 to 128 µM) | < 35 µg/mL |  |  |  |
| CC(=NOCC(F)(F)F)c1cc(N)c(O)c2c1C[C@H]1C[C@H]3[C@H](N(C)C)C(O)=C(C(N)=O)C(=O)[C@@]3(O)C(O)=C1C2=O [Compound AW, (4S,4aS,5aR,12aS)-9-Amino-4-dimethylamino-3,10,12,12a-tetrahydroxy-1,1,1-dioxo-7-[1-(2,2,2-trifluoro-ethoxyimino)-ethyl]-1,4,4a,5,5a,6,11,12a-octahydro-naphthacene-2-carboxylic acid amide] | 4 to 8 µg/mL (≈ 7.04 to 14.1 µM) | < 4 µg/mL | 4 to 8 µg/mL (≈ 7.04 to 14.1 µM) | < 4 µg/mL | < 4 µg/mL | < 4 µg/mL | 4 to 8 µg/mL (≈ 7.04 to 14.1 µM) |  |  |  |  |  |
| CCON=C(C)c1cc(N)c(O)c2c1C[C@H]1C[C@H]3[C@H](N(C)C)C(O)=C(C(N)=O)C(=O)[C@@]3(O)C(O)=C1C2=O [M] | 4 to 8 µg/mL (≈ 7.77 to 15.5 µM) | < 4 µg/mL | 4 to 8 µg/mL (≈ 7.77 to 15.5 µM) | < 4 µg/mL | < 4 µg/mL | < 4 µg/mL | < 4 µg/mL | > 75 µg/mL | > 75 µg/mL |  |  |  |
| CC(=NOC(C)(C)C)c1cc(N)c(O)c2c1C[C@H]1C[C@H]3[C@H](N(C)C)C(O)=C(C(N)=O)C(=O)[C@@]3(O)C(O)=C1C2=O [Compound Q, (4S,4aS,5aR,12aS)-9-Amino-7-(1-tert-butoxyimino-ethyl)-4-dimethylamino-3,10,12,12a-tetrahydroxy-1,11-dioxo-1,4,4a,5,5a,6,11,12a-octahydro-naphthacene-2-carboxylic acid amide] | 4 to 8 µg/mL (≈ 7.37 to 14.7 µM) | < 4 µg/mL | 4 to 8 µg/mL (≈ 7.37 to 14.7 µM) | < 4 µg/mL | < 4 µg/mL | < 4 µg/mL | 4 to 8 µg/mL (≈ 7.37 to 14.7 µM) | < 35 µg/mL | < 35 µg/mL | 100% | 0.45 mg/kg |  |
| CCONCc1ccc2c(c1O)C(=O)C1=C(O)[C@]3(O)C(=O)C(C(N)=O)=C(O)[C@@H](N(C)C)[C@@H]3C[C@@H]1C2 [AQ] |  |  |  |  |  |  |  | < 35 µg/mL | < 35 µg/mL |  |  |  |
| CN(C)[C@@H]1C(O)=C(C(N)=O)C(=O)[C@@]2(O)C(O)=C3C(=O)c4c(O)ccc(CN5CCCCO5)c4C[C@H]3C[C@@H]12 [AV] |  |  |  |  |  |  |  | 35 to 75 µg/mL (≈ 68.2 to 146 µM) | 35 to 75 µg/mL (≈ 68.2 to 146 µM) |  |  |  |
| CON(C)Cc1ccc(O)c2c1C[C@H]1C[C@H]3[C@H](N(C)C)C(O)=C(C(N)=O)C(=O)[C@@]3(O)C(O)=C1C2=O [Compound P] |  |  |  |  |  |  |  |  |  |  |  | 4 to 8 µg/mL (≈ 8.2 to 16.4 µM) |
| CN(C)[C@@H]1C(O)=C(C(N)=O)C(=O)[C@@]2(O)C(O)=C3C(=O)c4cccc(-c5cnccn5)c4C[C@H]3C[C@@H]12 [Compound W, (4S,4aS,5aR,12aS)-4-Dimethylamino-3,12,12a-trihydroxy-1,11-dioxo-7-pyrazin-2-yl-1,4,4a,5,5a,6,11,12a-octahydro-naphthacene-2-carboxylic acid amide] | > 8 µg/mL | < 4 µg/mL | > 8 µg/mL | < 4 µg/mL | < 4 µg/mL | < 4 µg/mL | > 8 µg/mL | > 75 µg/mL | > 75 µg/mL |  | 1.08 mg/kg |  |
| CCON=C(CCN(C)C)c1ccc(O)c2c1C[C@H]1C[C@H]3[C@@H](N(C)C)C(O)=C(C(N)=O)C(=O)[C@@]3(O)C(O)=C1C2=O [Compound I, (4R,4aS,5aR,12aS)-4-Dimethylamino-7-(3-dimethylamino-1-ethoxyimino-propyl)-3,10,12,12a-tetrahydroxy-1,11-dioxo-1,4,4a,5,5a,6,11,12a-octahydro-naphthacene-2-carboxylic acid amide] | 4 to 8 µg/mL (≈ 7.19 to 14.4 µM) | < 4 µg/mL | < 4 µg/mL | < 4 µg/mL | < 4 µg/mL | < 4 µg/mL | < 4 µg/mL | > 75 µg/mL | > 75 µg/mL |  |  |  |
| CON(C)Cc1ccc(O)c2c1C[C@H]1C[C@H]3[C@@H](N(C)C)C(O)=C(C(N)=O)C(=O)[C@@]3(O)C(O)=C1C2=O [Y] |  |  |  |  |  |  |  |  |  |  |  | > 8 µg/mL |
| CC(=NOC(C)(C)C)c1cc(N)c(O)c2c1C[C@H]1C[C@H]3[C@@H](N(C)C)C(O)=C(C(N)=O)C(=O)[C@@]3(O)C(O)=C1C2=O [R] | 4 to 8 µg/mL (≈ 7.37 to 14.7 µM) | < 4 µg/mL | > 8 µg/mL | < 4 µg/mL | < 4 µg/mL | < 4 µg/mL | > 8 µg/mL | < 35 µg/mL | < 35 µg/mL |  |  |  |
| CON(C)Cc1ccc2c(c1O)C(=O)C1=C(O)[C@]3(O)C(=O)C(C(N)=O)=C(O)[C@@H](N(C)C)[C@@H]3C[C@@H]1C2 [Compound AP] | 4 to 8 µg/mL (≈ 8.2 to 16.4 µM) |  |  |  |  |  |  | 35 to 75 µg/mL (≈ 71.8 to 154 µM) | 35 to 75 µg/mL (≈ 71.8 to 154 µM) |  |  |  |
| CCON=C(C)c1cc(CNCC(C)(C)C)c(O)c2c1C[C@H]1C[C@H]3[C@H](N(C)C)C(O)=C(C(N)=O)C(=O)[C@@]3(O)C(O)=C1C2=O [Compound N, (4S,4aS,5aR,12aS)-4-Dimethylamino-9-[(2,2-dimethyl-propylamino)-methyl]-7-(1-ethoxyimino-ethyl)-3,10,12,12a-tetrahydroxy-1,11-dioxo-1,4,4a,5,5a,6,11,12a-octahydro-naphthacene-2-carboxylic acid amide] | < 4 µg/mL | < 4 µg/mL | 4 to 8 µg/mL (≈ 6.68 to 13.4 µM) | < 4 µg/mL | < 4 µg/mL | < 4 µg/mL | < 4 µg/mL | > 75 µg/mL | > 75 µg/mL |  |  |  |

Now from value to compound, other results behind:

| MIC [1, 5] | MIC (P. acnes ATCC 11827) | MIC (E. coli MG. 1655) | MIC (S. aureus RN450 [2]) | MIC [3] | MIC (P. acnes ATCC 6919) | MIC (E. coli ATCC 25922) | IC50 at 24 h (in vitro; African green monkey) | IC50 at 24 h (in vitro; Chinese hamster) | SMILES | responders at 5 mg/kg (S. aureus RN450 [4]; lethal IP S. aureus RN450, single subcutaneous dose 5 mg/kg, survival at 24 hours, read-out: Percent Survival) | ED50 (S. aureus RN450 [4]) | MIC [1, 6] |
| --- | --- | --- | --- | --- | --- | --- | --- | --- | --- | --- | --- | --- |
|  |  |  |  |  |  |  | < 35 µg/mL | 35 to 75 µg/mL (≈ 66.9 to 143 µM) | CN(C)[C@@H]1C(O)=C(C(N)=O)C(=O)[C@@]2(O)C(O)=C3C(=O)c4c(O)ccc(CNOCC(F)F)c4C[C@H]3C[C@@H]12 [AR] |  |  |  |
|  |  |  |  |  |  |  | > 75 µg/mL | > 75 µg/mL | CN(C)[C@@H]1C(O)=C(C(N)=O)C(=O)[C@@]2(O)C(O)=C3C(=O)c4c(O)ccc(CNOCCF)c4C[C@H]3C[C@@H]12 [Compound AO, (4S,4aS,5aR,12aS)-4-Dimethylamino-7-[(2-fluoro-ethoxyamino)-methyl]-3,10,12,12a-tetrahydroy-1,11-dioxo-1,4,4a,5,5a,6,11,12a-octahydro-naphthacene-2-carboxylic acid amide] |  |  |  |
|  |  |  |  |  |  |  | > 75 µg/mL | > 75 µg/mL | CN(C)[C@H]1C(O)=C(C(N)=O)C(=O)[C@@]2(O)C(O)=C3C(=O)c4c(O)ccc(CNOCC(F)F)c4C[C@H]3C[C@@H]12 [AS] |  |  |  |
|  |  |  |  |  |  |  | < 35 µg/mL | < 35 µg/mL | COC(=O)CONCc1ccc(O)c2c1C[C@H]1C[C@H]3[C@H](N(C)C)C(O)=C(C(N)=O)C(=O)[C@@]3(O)C(O)=C1C2=O [AX] |  |  |  |
|  |  |  |  |  |  |  | < 35 µg/mL | < 35 µg/mL | CC(C)ONCc1ccc(O)c2c1C[C@H]1C[C@H]3[C@H](N(C)C)C(O)=C(C(N)=O)C(=O)[C@@]3(O)C(O)=C1C2=O [Compound AN, (4S,4aS,5aR,12aS)-4-Dimethylamino-3,10,12,12a-tetrahydroxy-7-(isopropoxyamino-methyl)-1,11-dioxo-1,4,4a,5,5a,6,11,12a-octahydro-naphthacene-2-carboxylic acid amide] |  |  |  |
|  |  |  |  |  |  |  | > 75 µg/mL | > 75 µg/mL | CN(C)[C@H]1C(O)=C(C(N)=O)C(=O)[C@@]2(O)C(O)=C3C(=O)c4c(O)ccc(CNOCC(F)(F)F)c4C[C@H]3C[C@@H]12 [AU] |  |  |  |
|  |  |  |  |  |  |  | < 35 µg/mL | < 35 µg/mL | CN(C)[C@@H]1C(O)=C(C(N)=O)C(=O)[C@@]2(O)C(O)=C3C(=O)c4c(O)ccc(CNOCC(F)(F)F)c4C[C@H]3C[C@@H]12 [AT] |  |  |  |
